These compounds were tested against T1, APOL1 (Homo sapiens, UniProt O14791) (assay: MultiTox-Fluor Multiplex Cytotoxicity Assay in tet-inducible APOL1 T-REx-HEK293 cells). Conditions: tet-inducible transgenic APOL1 T-REx-HEK293 cells, 50 ng/mL tet, 24 hours; ratio of dead to live cells; APOL1 variant (G0/G1/G2) not stated; read-out: IP50 (nM) (i.e., IC50 for cell proliferation).
T1 sequence (O14791 1-398 S342G/I384M): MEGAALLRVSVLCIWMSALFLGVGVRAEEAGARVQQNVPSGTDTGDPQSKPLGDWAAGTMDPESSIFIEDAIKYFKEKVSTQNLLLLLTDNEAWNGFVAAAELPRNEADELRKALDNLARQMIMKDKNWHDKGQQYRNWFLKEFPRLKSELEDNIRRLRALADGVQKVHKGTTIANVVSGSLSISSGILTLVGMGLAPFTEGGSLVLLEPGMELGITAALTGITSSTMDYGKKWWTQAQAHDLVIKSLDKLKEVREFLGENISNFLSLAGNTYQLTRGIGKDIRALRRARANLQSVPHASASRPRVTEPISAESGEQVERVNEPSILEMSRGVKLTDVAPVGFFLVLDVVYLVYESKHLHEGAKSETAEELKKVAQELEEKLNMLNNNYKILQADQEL
Format: cell-based
Procedure: The MultiTox-Fluor Multiplex Cytotoxicity Assay is a single-reagent-addition, homogeneous, fluorescence assay that measures the number of live and dead cells simultaneously in culture wells. The assay measures cell viability and cytotoxicity by detecting two distinct protease activities. The live-cell protease activity is restricted to intact viable cells and is measured using a fluorogenic, cell-permeant peptide glycyl-phenylalanylamino fluorocoumarin (GF-AFC) substrate. The substrate enters intact cells, where it is cleaved to generate a fluorescent signal proportional to the number of living cells. […] A second, cell-impermeant, fluorogenic peptide substrate (bis-AAF-R^110 Substrate) is used to measure dead-cell protease that has been released from cells that have lost membrane integrity. A ratio of dead to live cells is used to normalize data.
Briefly, the tet-inducible transgenic APOL1 T-REx-HEK293 cell lines were incubated with 50 ng/mL tet to induce APOL1 in the presence of 3-(2-(4-fluorophenyl)-1H-indol-3-yl)-N-((3S,4R)-4-hydroxy-2-oxopyrrolidin-3-yl)propenamide at 10.03, 3.24, 1.13, 0.356, 0.129, 0.042, 0.129, 0.0045, 0.0015, 0.0005 μM in duplicate for 24 hours in a humidified 37° C. incubator. The MultiTox reagent was added to each well and placed back in the incubator for an additional 30 minutes. The plate was read on the EnVision plate reader. A ratio of dead to live cells was used to normalize, and data was imported, analyzed, and fit using Genedata Screener (Basel, Switzerland) software. Data was normalized using percent of control, no tet (100% viability), and 50 ng/mL tet treated (0% viability),and fit using Smart Fit. The reagents, methods, and complete protocol for the MultiTox assay are described below.
Human embryonic kidney (HEK293) cell lines containing a tet-inducible expression system (T-REx™; Invitrogen, Carlsbad, CA) and Adeno-associated virus site 1 pAAVS1-Puro-APOL1 G0 or pAAVS1-Puro-APOL1 G1 or pAAVS1-Puro-APOL1 G2 Clones G0 DC2.13, G1 DC3.25, and G2 DC4.44 were grown in a T-225 flask at ˜90% confluency in cell growth media (DMEM, 10% Tet-free FBS, 2 mM L-glutamine, 100 Units/mL penicillin-streptomycin, 5 μg/mL blasticidin S HCl, 1 μg/mL puromycin dihydrochloride). Cells were washed with DPBS and then trypsinized to dissociate from the flask. Media was used to quench the trypsin, cells were then pelleted at 200 g and resuspended in fresh cell assay media (DMEM, 2% Tet-free FBS, 2 mM L-glutamine, 100 Units/mL penicillin-streptomycin). Cells were counted and diluted to 1.17×10^6 cells/mL. 20 μL of cells (23,400/well) were dispensed in every well of a 384-well Poly-D-Lysine coated plate using the Multidrop dispenser. The plates were then incubated at room temperature for one hour.
Tetracycline is needed to induce APOL1 expression. 1 mg/mL tet stock in water was diluted to 250 ng/mL (5×) in cell assay media. 60 μL of cell assay media (no tet control) was dispensed in columns 1 and 24, and 60 μL of 5× tet in 384-PP-round bottom plate was dispensed in columns 2 to 23 with the Multidrop dispenser.
Assay ready plates from the Global Compound Archive were ordered using template 384_APOL1Cell_DR10n2_50 μM_v3. Compounds were dispensed at 200 nL in DMSO. The final top concentration was 10 μM with a 10 point 3-fold dilution in duplicate in the MultiTox assay.
20 μL was transferred from the 5× tet plate to the ARP and mixed, then 5 μL of 5× tet and the compounds were transferred to the cell plate and mixed using the Bravo. The cell plate was placed in the humidified 37° C. 5% CO2 incubator for 24 hours.
The MultiTox-Fluor Multiplex Cytotoxicity Assay was performed in accordance with the manufacturer's protocol. After cells were incubated with tet and compound for 24 hours, 25 μL of 1× MultiTox reagent was added to each well using the Multidrop dispenser; the plates were placed on a plate shaker (600 rpm) for 2 minutes, then centrifuged briefly and placed back in the 37° C. incubator for 30 minutes. […]

Q: With `C[C@H]1C[C@@](O)(c2ccccc2)CCN1Cc1ccc2c(c1)n(C)c(=O)n2C` [Compound 2] as the compound, how does the IC50 read?
A: 100 to 500 nM

Q: For `C[C@@H]1C[C@](O)(c2cccc(F)c2)CCN1Cc1ccc2c(c1)n(C)c(=O)n2C` [Compound 11], which IC50 is on record?
A: 100 to 500 nM

Q: Which IC50 does the source give for `C[C@H]1C[C@@](O)(c2cccc(Cl)c2)CCN1Cc1cnn(CCS(C)(=O)=O)c1` [Compound 21] here?
A: ≤ 100 nM

Q: `C[C@H]1C[C@@](O)(c2ccc(Cl)cc2)CCN1Cc1ccc2c(c1)n(C)c(=O)n2C` [Compound 7] was tested. Which IC50 did it give?
A: ≤ 100 nM

Q: Which IC50 does the source give for `Cc1cc(C)cc([C@@]2(O)CCN(Cc3ccc4c(c3)n(C)c(=O)n4C)[C@@H](C)C2)c1` [Compound 15] here?
A: ≤ 100 nM

Q: `C[C@H]1C[C@@](O)(c2cccc(Cl)c2)CCN1Cc1cnn(-c2ccccn2)c1` [Compound 23] was tested. Which IC50 did it give?
A: ≤ 100 nM

Q: How did the IC50 turn out when `C[C@H]1C[C@@](O)(c2ccc(Cl)c(Cl)c2)CCN1Cc1ccc2c(c1)n(C)c(=O)n2C` [Compound 9] was run?
A: ≤ 100 nM

Q: `CC(C)n1cc(CN2CC[C@](O)(c3cccc(Cl)c3)C[C@@H]2C)cn1` [Compound 17] was tested. Which IC50 did it give?
A: 500 to 5000 nM

Q: `C[C@@H]1C[C@](O)(c2ccccc2)CCN1Cc1ccc2c(c1)n(C)c(=O)n2C` [Compound 3] was tested. Which IC50 did it give?
A: 500 to 5000 nM

Q: How did the IC50 turn out when `C[C@H]1C[C@@](O)(c2cccc(Cl)c2)CCN1Cc1ncco1` [Compound 22] was run?
A: 500 to 5000 nM

Q: Which IC50 does the source give for `C[C@H]1CC(O)(c2cccc(C(F)(F)F)c2)CCN1Cc1ccc2c(c1)n(C)c(=O)n2C` (some centres unmarked) [Compound 5] here?
A: 100 to 500 nM

Q: How did the IC50 turn out when `Cc1cccc([C@@]2(O)CCN(Cc3ccc4c(c3)n(C)c(=O)n4C)[C@@H](C)C2)c1` [Compound 1, 5-[[(2S,4R)-4-hydroxy-2-methyl-4-(m-tolyl)-1-piperidyl]methyl]-1,3-dimethyl-benzimidazol-2-one] was run?
A: 100 to 500 nM

Q: How did the IC50 turn out when `C[C@@H]1C[C@](O)(c2ccc(Cl)cc2)CCN1Cc1ccc2c(c1)n(C)c(=O)n2C` [Compound 10] was run?
A: ≤ 100 nM

Q: How did the IC50 turn out when `Cc1ncc(CN2CC[C@](O)(c3cccc(Cl)c3)C[C@@H]2C)cn1` [Compound 19] was run?
A: 500 to 5000 nM

Q: `C[C@H]1C[C@@](O)(c2cc(F)cc(Cl)c2)CCN1Cc1ccc2c(c1)n(C)c(=O)n2C` [Compound 8] was tested. Which IC50 did it give?
A: ≤ 100 nM

Q: For `Cc1nc(CN2CC[C@](O)(c3cccc(Cl)c3)C[C@@H]2C)c[nH]1` [Compound 26], which IC50 is on record?
A: 500 to 5000 nM

Q: For `C[C@H]1C[C@@](O)(c2ccc3c(c2)CCO3)CCN1Cc1ccc2c(c1)n(C)c(=O)n2C` [Compound 14], which IC50 is on record?
A: 500 to 5000 nM

Q: How did the IC50 turn out when `C[C@H]1C[C@@](O)(c2cccc(Cl)c2)CCN1Cc1cnn(CC(=O)N(C)C)c1` [Compound 20] was run?
A: 100 to 500 nM

Q: With `C[C@@H]1C[C@](O)(c2ccc(Cl)c(Cl)c2)CCN1Cc1ccc2c(c1)n(C)c(=O)n2C` [Compound 12] as the compound, how does the IC50 read?
A: 100 to 500 nM

Q: How did the IC50 turn out when `C[C@H]1C[C@@](O)(c2cccc(C3CC3)c2)CCN1Cc1ccc2c(c1)n(C)c(=O)n2C` [Compound 13] was run?
A: ≤ 100 nM

Q: Which IC50 does the source give for `C[C@H]1C[C@@](O)(c2cccc(Cl)c2)CCN1Cc1cnn(C2CCS(=O)(=O)C2)c1` (stereo partly drawn) [Compound 16, (2S,4R)-4-(3-chlorophenyl)-1-[[1-(1,1-dioxothiolan-3-yl)pyrazol-4-yl]methyl]-2-methyl-piperidin-4-ol] here?
A: 100 to 500 nM

Q: `C[C@H]1C[C@](O)(c2ccc(Cl)cc2)CCN1Cc1ccc2c(c1)n(C)c(=O)n2C` [Compound 6] was tested. Which IC50 did it give?
A: 500 to 5000 nM

Q: Which IC50 does the source give for `Cc1ccc(CN2CC[C@](O)(c3cccc(Cl)c3)C[C@@H]2C)nn1` [Compound 18] here?
A: 500 to 5000 nM

Q: With `Cc1nc(CN2CC[C@](O)(c3cccc(Cl)c3)C[C@@H]2C)co1` [Compound 25] as the compound, how does the IC50 read?
A: 500 to 5000 nM

Q: With `C[C@H]1C[C@@](O)(c2cccc(Cl)c2)CCN1Cc1ccc(C(N)=O)cc1` [Compound 24] as the compound, how does the IC50 read?
A: 100 to 500 nM

Q: How did the IC50 turn out when `C[C@H]1C[C@@](O)(c2cccc(Cl)c2)CCN1Cc1ccc2c(c1)n(C)c(=O)n2C` [Compound 4] was run?
A: ≤ 100 nM
